Assay results reported in ChEMBL document CHEMBL5375953, “Discovery of Biaryl Amide Derivatives as Potent, Selective, and Orally Bioavailable RORγt Agonists for Cancer Immunotherapy” (J Med Chem, 2023).

Legend:
[1] = Antitumor activity against mouse Lung adenocarcinoma cell line xenografted in C57BL/6 mouse assessed as tumor growth inhibition at 50 mg/kg,ip administrated on day 7 for 12 days relative to control; format: functional; conditions: 288 h, time 12 day, read-out: TGI
[2] = Cmax in dog at 2 mg/kg,po administration measured after 24 hrs by LC-MS/MS analysis; format: ADME, organism-based, Canis lupus familiaris; design: dose 2 mg/kg, time 24 hrs, route po; conditions: in vivo
[3] = Half life in rat at 5 mg/kg,po administration measured after 24 hrs by LC-MS/MS analysis; format: ADME, organism-based; conditions: in vivo
[4] = Oral bioavailability in dog at 2 mg/kg administration measured after 24 hrs by LC-MS/MS analysis; format: ADME, organism-based, Canis lupus familiaris; conditions: in vivo
[5] = Volume of distribution at steady state in CD-1 mouse at 1 mg/kg,iv administration measured after 24 hrs by LC-MS/MS analysis; format: ADME, organism-based; conditions: in vivo
[6] = Metabolic Stability in rat liver microsome assessed as microsomal intrinsic clearance at […] measured upto 60 mins by HPLC-MS/MS analysis; format: ADME; conditions: liver microsomes, read-out: CLH
[7] = AUC(infinity) in CD-1 mouse at 1 mg/kg,iv administration measured after 24 hrs by LC-MS/MS analysis; format: ADME, organism-based; design: time 24 hrs, dose 1 mg/kg, route iv; conditions: in vivo
[8] = Metabolic Stability in mouse liver microsome assessed as intrinsic clearance at […] measured upto 60 mins by HPLC-MS/MS analysis; format: ADME; conditions: microsomes, 1 h
[9] = biological target: T1, Nuclear receptor ROR-alpha (Homo sapiens, UniProt P35398); test: Agonist activity at human Gal4-fused RORalpha expressed in HEK293T cells assessed as luciferase activity incubated for 16 to 20 hrs by Luciferase reporter gene assay; format: cell-based
T1 sequence (P35398 whole entry): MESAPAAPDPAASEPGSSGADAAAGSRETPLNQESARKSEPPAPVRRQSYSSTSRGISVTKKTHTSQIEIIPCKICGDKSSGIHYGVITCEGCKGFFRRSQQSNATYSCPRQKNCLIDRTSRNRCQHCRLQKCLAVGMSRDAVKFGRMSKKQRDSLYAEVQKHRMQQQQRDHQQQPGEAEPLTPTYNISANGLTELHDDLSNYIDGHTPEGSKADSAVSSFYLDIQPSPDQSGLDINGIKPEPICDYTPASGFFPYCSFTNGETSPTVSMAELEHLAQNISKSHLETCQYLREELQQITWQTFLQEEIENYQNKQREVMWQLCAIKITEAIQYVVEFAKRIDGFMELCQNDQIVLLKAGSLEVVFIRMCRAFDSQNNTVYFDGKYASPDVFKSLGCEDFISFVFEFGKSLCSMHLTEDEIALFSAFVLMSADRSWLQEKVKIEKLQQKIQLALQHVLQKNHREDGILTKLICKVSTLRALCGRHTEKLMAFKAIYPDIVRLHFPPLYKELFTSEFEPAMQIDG

[10] = AUC(infinity) in rat at 5 mg/kg,po administration measured after 24 hrs by LC-MS/MS analysis; format: ADME, organism-based; design: time 24 hrs, dose 5 mg/kg, route po; conditions: in vivo
[11] = Antitumor activity against mouse Lung adenocarcinoma cell line xenografted in C57BL/6 mouse assessed as tumor growth inhibition at 25 mg/kg,ip administrated on day 7 for 12 days relative to control; format: functional; conditions: 288 h, time 12 day, read-out: TGI
[12] = test system: B16-F10; test: Antitumor activity against mouse B16-F10 cells xenografted in C57BL/6 mouse assessed as tumor growth inhibition at 50 mg/kg,ip administrated on day 7 for 8 days relative to control; format: functional; conditions: B16-F10, 192 h, time 8 day, read-out: TGI
[13] = Genotoxicity in Salmonella typhimurium TA100 by mini-Ames mutagenicity test; format: toxicity; conditions: salmonella enterica subsp. enterica serovar typhimurium
[14] = Toxicity against C57BL/6 mouse xenografted with mouse Lung adenocarcinoma cell line assessed as change in body weight at 50 mg/kg,ip administrated on day 7 for 12 days; format: organism-based; conditions: in vivo, 288 h, time 12 day
[15] = Clearance in rat at 1 mg/kg,iv administration measured after 24 hrs by LC-MS/MS analysis; format: ADME, organism-based; conditions: in vivo
[16] = Metabolic Stability in dog liver microsome assessed as half life at […] measured upto 60 mins by HPLC-MS/MS analysis; format: ADME, Canis lupus familiaris; conditions: liver microsomes
[17] = Antitumor activity against mouse Lung adenocarcinoma cell line xenografted in C57BL/6 mouse assessed as tumor growth inhibition at 100 mg/kg,po administrated on day 7 for 12 days relative to control; format: functional; conditions: 288 h, time 12 day, read-out: TGI
[18] = AUC(infinity) in CD-1 mouse at 5 mg/kg,po administration measured after 24 hrs by LC-MS/MS analysis; format: ADME, organism-based; design: dose 5 mg/kg, time 24 hrs, route po; conditions: in vivo
[19] = AUC(infinity) in rat at 1 mg/kg,iv administration measured after 24 hrs by LC-MS/MS analysis; format: ADME, organism-based; design: dose 1 mg/kg, time 24 hrs, route iv; conditions: in vivo

SMILES: CCS(=O)(=O)c1ccc(CC(=O)Nc2cc(Cl)c(-c3ccc(OC(C)C)c(C#N)c3)c(Cl)c2)cc1
- inhibition in vivo at 50 mg/kg [1]: 75.6%
- Cmax [2]: 0.518 µg/mL
- half-life [3]: 11.4 h
- bioavailability [4]: 52.2%
- Vdss [5]: 2 L/kg
- microsomal CLint [6]: < 9.6 µL/min/mg
- AUC [7]: 4.6219 µg·h/mL
- CLH [8]: < 38 µL/min/mg
- EC50 [9]: > 10 µM
- AUC(0-inf) [10]: 10.6 µg·h/mL
- inhibition in vivo at 25 mg/kg [11]: 46.2%
- inhibition in vivo at 50 mg/kg [12]: 54.7%
- Activity [13]: Non-Toxic
- Activity [14]: Non-Toxic
- clearance [15]: 0.192 L/h/kg
- half-life [16]: > 2.42 h
- inhibition in vivo at 100 mg/kg [17]: 49.8%
- AUC(0-inf) [18]: 20.7 µg·h/mL
- AUC(0-inf) [19]: 5.41 µg·h/mL
